According to ChEMBL document CHEMBL1153270, “Fluoroalkyl alpha side chain containing 3,4-diamino-cyclobutenediones as potent and orally bioavailable CXCR2-CXCR1 dual antagonists” (Bioorg Med Chem Lett, 2009):

Assays:
[1] = target: T1, C-X-C chemokine receptor type 2 (Homo sapiens, UniProt P25025); assay: Binding affinity to CXCR2
T1 sequence (P25025 whole entry): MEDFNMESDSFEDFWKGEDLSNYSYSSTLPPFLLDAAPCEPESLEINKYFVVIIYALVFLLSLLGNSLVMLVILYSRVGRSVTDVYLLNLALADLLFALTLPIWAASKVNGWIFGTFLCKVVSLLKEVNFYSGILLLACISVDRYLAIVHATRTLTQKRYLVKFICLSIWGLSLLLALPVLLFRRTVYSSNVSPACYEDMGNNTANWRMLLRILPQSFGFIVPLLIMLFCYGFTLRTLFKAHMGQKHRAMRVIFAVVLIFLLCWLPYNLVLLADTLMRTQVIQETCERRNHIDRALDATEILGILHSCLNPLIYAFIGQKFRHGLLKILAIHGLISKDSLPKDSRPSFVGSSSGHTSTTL

[2] = target: T2, C-X-C chemokine receptor type 1 (Homo sapiens, UniProt P25024); assay: Binding affinity to CXCR1
T2 sequence (P25024 whole entry): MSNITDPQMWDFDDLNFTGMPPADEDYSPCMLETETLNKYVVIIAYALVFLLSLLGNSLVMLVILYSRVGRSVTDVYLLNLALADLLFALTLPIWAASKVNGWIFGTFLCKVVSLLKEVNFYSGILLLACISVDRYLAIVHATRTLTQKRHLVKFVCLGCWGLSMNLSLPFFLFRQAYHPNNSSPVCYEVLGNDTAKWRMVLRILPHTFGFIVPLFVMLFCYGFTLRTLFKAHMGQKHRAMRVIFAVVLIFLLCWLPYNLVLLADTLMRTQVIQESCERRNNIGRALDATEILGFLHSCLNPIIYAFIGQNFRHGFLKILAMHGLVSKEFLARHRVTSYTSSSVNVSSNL

[3] = AUC in po dosed rat; type: ADME, organism-based; conditions: plasma

Row | Structure (SMILES) | Ki [1] [nM] | Ki [2] [nM] | AUC [3] [µM·h]
1 | CN(C)C(=O)c1cccc(Nc2c(N[C@@H](c3ccccc3)C(F)(F)F)c(=O)c2=O)c1O | 14 | 40 | –
2 | CC[C@@H](Nc1c(Nc2cccc(C(=O)N(C)C)c2O)c(=O)c1=O)c1ccccc1 | 4 | 40 | 17.4
3 | CN(C)C(=O)c1cccc(Nc2c(N[C@H](CCC(F)(F)F)c3ccco3)c(=O)c2=O)c1O | 400 | – | –
4 | Cc1coc([C@H](Nc2c(Nc3cccc(C(=O)N(C)C)c3O)c(=O)c2=O)C(C)(F)F)c1 | 14 | 6 | –
5 | CN(C)C(=O)c1cccc(Nc2c(N[C@@H](c3ccc4c(c3)OCO4)C(F)(F)F)c(=O)c2=O)c1O | 5 | 8 | 9.17
6 | CN(C)C(=O)c1cccc(Nc2c(N[C@@H](c3ccc(Cl)o3)C(F)(F)F)c(=O)c2=O)c1O | 7 | 34 | –
7 | CN(C)C(=O)c1cccc(Nc2c(N[C@@H](c3cc(Cl)co3)C(F)(F)F)c(=O)c2=O)c1O | 5 | 20 | –
8 | CN(C)C(=O)c1cccc(Nc2c(N[C@@H](c3ccco3)C(F)(F)F)c(=O)c2=O)c1O | 2 | 6 | –
9 | Cc1ccoc1[C@H](Nc1c(Nc2cccc(C(=O)N(C)C)c2O)c(=O)c1=O)C(C)(F)F | 12 | 30 | –
10 | CN(C)C(=O)c1cccc(Nc2c(N[C@@H](c3cc(Cl)c(Cl)o3)C(F)(F)F)c(=O)c2=O)c1O | 5 | 103 | –
11 | CC(C)c1coc([C@H](Nc2c(Nc3cccc(C(=O)N(C)C)c3O)c(=O)c2=O)C(C)(F)F)c1 | 2 | 25 | –
12 | CN(C)C(=O)c1cccc(Nc2c(N[C@H](CC(F)(F)F)c3ccco3)c(=O)c2=O)c1O | 5 | 100 | –

Other lines, results leading:

Row | Ki [1] [nM] | Ki [2] [nM] | AUC [3] [µM·h] | Structure (SMILES)
13 | 4 | 10 | – | Cc1ccc([C@H](Nc2c(Nc3cccc(C(=O)N(C)C)c3O)c(=O)c2=O)C(F)(F)C(F)(F)F)o1
14 | 4 | 5 | 3.6 | Cc1coc([C@H](Nc2c(Nc3cccc(C(=O)N(C)C)c3O)c(=O)c2=O)[C@H](C)F)c1
15 | 10 | 6 | 3 | Cc1ccc([C@H](Nc2c(Nc3cccc(C(=O)N(C)C)c3O)c(=O)c2=O)C(C)(F)F)o1
16 | 7 | 43 | – | C[C@H](F)[C@@H](Nc1c(Nc2cccc(C(=O)N(C)C)c2O)c(=O)c1=O)c1ccco1
17 | 9 | – | – | C=CC(F)(F)[C@@H](Nc1c(Nc2cccc(C(=O)N(C)C)c2O)c(=O)c1=O)c1ccc(C)o1
18 | 5 | 22 | – | CCC(F)(F)[C@@H](Nc1c(Nc2cccc(C(=O)N(C)C)c2O)c(=O)c1=O)c1ccc(C)o1
19 | – | – | 49 | CC[C@@H](Nc1c(Nc2cccc(C(=O)N(C)C)c2O)c(=O)c1=O)c1ccc(C)o1 [NAVARIXIN ANHYDROUS]
20 | 5 | 9 | 19.8 | Cc1ccc([C@H](Nc2c(Nc3cccc(C(=O)N(C)C)c3O)c(=O)c2=O)C(F)(F)F)o1
21 | 8 | 24 | – | Cc1ccc([C@H](Nc2c(Nc3cccc(C(=O)N(C)C)c3O)c(=O)c2=O)C(C)(C)F)o1
22 | 13 | 16 | 3.6 | Cc1ccc([C@H](Nc2c(Nc3cccc(C(=O)N(C)C)c3O)c(=O)c2=O)[C@H](C)F)o1
